Source: paper PMC11492426, “Design, synthesis, and biological evaluation of novel quinoline-based EGFR/HER-2 dual-target inhibitors as potential anti-tumor agents” (RSC Advances, 2024)

Columns and labels:
[1] = test system: Caspase-3; assay: Caspase-3 activation assay in MCF-7 cells; assay type: cell-based, human; details: for Caspase-3 Conc.: treated at IC50 concentration; for Caspase-3 Fold change: versus untreated control
[2] = test system: Bcl-2; assay: Bcl-2 inhibition assay in MCF-7 cells; assay type: cell-based, human; details: for Bcl-2 Conc.: treated at IC50 values
Procedure: Additionally, the treatment led to a notable reduction in anti-apoptotic Bcl-2 expression levels, with a fold decrease of roughly 6 for compound 3e and 8 for compound 5a. Compounds 3e and 5a markedly elevated the Bax/Bcl-2 ratio compared to the control untreated cells. […]
4.2.8. Bcl-2 inhibition assay
Mix all reagents thoroughly without foaming before use. Wash the microwells twice with approximately 300 μL Wash Buffer per well with thorough aspiration of microwell contents between washes. Take caution not to scratch the surface of the microwells. After the last wash, empty the wells and tap microwell strips on absorbent pad or paper towel to remove excess Wash Buffer. Use the microwell strips immediately after washing or place upside down on a wet absorbent paper for not […]
longer than 15 minutes. […] Add 100 μL of Sample Diluent in duplicate to all standard wells and to the blank wells. Prepare standard (1:2 dilution) in duplicate ranging from 32 ng/mL to 0.5 ng/mL. Add 100 μL of Sample Diluent, in duplicate, to the blank wells. Add 80 μL of Sample Diluent, in duplicate, to the sample wells. Add 20 μL of each Sample, in duplicate, to the designated wells. Add 50 μL of diluted biotin-conjugate to all wells, including the blank wells. Cover with a plate cover and incubate at room temperature, on a microplate shaker at 100 rpm if available, for 2 hours. Remove plate cover and empty the wells. Wash microwell strips 3 times as described in step 2. Add 100 μL of diluted Streptavidin-HRP to all wells, including the blank wells. Cover with a plate cover and incubate at room temperature, on a microplate shaker at 100 rpm if available, for 1 hour. Remove plate cover and empty the wells. Wash microwell strips 3 times as described in step 2.
Proceed to the next step. Pipette 100 μl of mixed TMB Substrate Solution to all wells, including the blanks. Incubate the microwell strips at room temperature (18° to 25°C) for about 15 minutes, if available on a rotator set at 100 rpm. Avoid direct exposure to intense light. The point, at which the substrate reaction is stopped, is often determined by the ELISA reader. Many ELISA readers record absorbance only up to 2.0 O.D. Therefore, the color development within individual microwells must be watched by the person running the assay and the substrate reaction stopped before positive wells are no longer properly detectable. Stop the enzyme reaction by quickly pipetting 100 μL of Stop Solution into each well, including the blank wells. It is important that the Stop Solution is spread quickly and uniformly throughout the microwells to completely inactivate the enzyme. Results must be read immediately after the Stop Solution is added or within one hour if the microwell strips are stored at 2 - 8°C in the dark. Read absorbance of each microwell on a spectrophotometer using 450 nm as the primary wavelength.
4.3. Statistical analysis
Computerized Prism 5 program was used to statistically analyzed data using one-way ANOVA test followed by Tukey’s as post ANOVA for multiple comparison at P ≤.05. Data were presented as […]

[3] = test system: MCF-7 breast cancer cell line; assay: Antiproliferative assay, MCF-7; assay type: cell-based; details: Homo sapiens, MCF7; MCF-7 breast cancer cells; read-out: Antiproliferative activity IC50 ± SEM, MCF-7
[4] = test system: HT-29 colon cancer cell line; assay: Antiproliferative assay, HT-29; assay type: cell-based; details: Homo sapiens; HT-29 colon cancer cells; read-out: Antiproliferative activity IC50 ± SEM, HT-29
[5] = test system: Caspase-8; assay: Caspase-8 activation assay in MCF-7 cells; assay type: cell-based, human; details: for Caspase-8 Conc.: treated at IC50 concentration; for Caspase-8 Fold change: versus untreated control
[6] = test system: A-549 lung cancer cell line; assay: Antiproliferative assay, A-549; assay type: cell-based; details: Homo sapiens, A549; A-549 lung cancer cells; read-out: Antiproliferative activity IC50 ± SEM, A-549
[7] = test system: four human cancer cell lines (A-549, MCF-7, Panc-1, HT-29); assay: Antiproliferative assay, average over four cancer cell lines; assay type: cell-based; details: Homo sapiens, average IC50 over the four cancer cell lines
[8] = Cell viability assay (MTT) on MCF-10A normal cells; assay type: cell-based; details: human, MCF-10A mammary gland epithelial normal cells, MCF-10A cells, four-day incubation
Procedure: The impact of compounds 3a–h and 5a–d on cell viability was evaluated using the human mammary (MCF-10A) gland epithelium normal cell line. The MTT assay was used to evaluate the cell viability of 3a–h and 5a–d after a four-day incubation period on MCF-10A cells.[46] Refer to Appendix A for more details.
The effect of new compounds 3a–h and 5a–d on cell viability was evaluated using the MCF-10A (human mammary gland epithelium) normal cell line.
4.2. Biological evaluation
4.2.1 Cell Viability assay (MTT assay)
MTT assay was performed to investigate the effect of the synthesized compounds on mammary epithelial cells (MCF-10A). The cells were propagated in medium consisting of Ham's F-12 medium/ Dulbecco's modified Eagle's medium (DMEM) (1:1) supplemented with 10% foetal calf serum, 2 mM glutamine, insulin (10 μg/mL), hydrocortisone (500 ng/mL) and epidermal growth factor (20 ng/mL). Trypsin ethylenediamine tetra acetic acid (EDTA) was used to passage the cells after every 2-3 days. 96-well flat-bottomed cell culture plates were used to seed the cells at a density of 10^4 cells mL-1. The medium was aspirated from all the wells of culture plates after 24 h followed by the addition of synthesized compounds (in 200 μL medium to yield a final concentration of 0.1% (v/v) dimethyl sulfoxide) into individual wells of the plates. Four wells were designated to a single compound. The plates were allowed to incubate at 37°C for 96 h. Afterwards, the medium was aspirated and 3-[4,5-dimethylthiazol-2-yl]-2,5-diphenyltetrazolium bromide (MTT) (0.4 mg/mL) in medium was added to each well and subsequently incubated for 3 h. The medium was aspirated and 150 μL dimethyl sulfoxide (DMSO) was added to each well. The plates were vortexed followed by the measurement of absorbance at 540 nm on a microplate reader. The results were presented as inhibition (%) of proliferation in contrast to controls comprising 0.1% DMSO.

[9] = test system: Panc-1 pancreatic cancer cell line; assay: Antiproliferative assay, Panc-1; assay type: cell-based; details: Homo sapiens; Panc-1 pancreatic cancer cells; read-out: Antiproliferative activity IC50 ± SEM, Panc-1

IC50 [3] [nM]	IC50 [4] [nM]	IC50 [6] [nM]	GI50 [7] [nM]	IC50 [9] [nM]	SMILES	Caspase-3 Conc. [1] [pg/mL]	Caspase-3 Fold change [1]	Bcl-2 Conc. [2] [ng/mL]	Caspase-8 Conc. [5] [ng/mL]	Caspase-8 Fold change [5]	viability at 96 h, 50 µM [8] [%]	Bcl-2 Fold reduction ([2]; versus untreated control)
31 ± 3	34 ± 3	32 ± 3	33	34 ± 3	O=c1[nH]c2ccccc2c(O)c1/C=N/c1nc(-c2ccncc2)n[nH]1 [Compound 3e, (E)-4-hydroxy-3-(((3-(pyridin-4-yl)-1H-1,2,4-triazol-5-yl)imino)methyl)quinolin-2(1H)-one]	587 ± 5	9	0.84	1.65 ± 0.20	19	86	–
23 ± 2	26 ± 2	25 ± 2	25	26 ± 2	O=c1[nH]c2ccccc2c(O)c1C=Nc1ccc(NS(=O)(=O)c2ncccn2)cc1 [Compound 5a, N-(4-(((4-hydroxy-2-oxo-1,2-dihydroquinolin-3-yl)methylene)amino)phenyl) pyrimidine-2-sulfonamide]	710 ± 6	11	0.62	1.70 ± 0.15	21	87	~8
